{
  "source": "patent US11779768B2",
  "about": "“Protein activity modification” (Impulse Dynamics NV, priority 2004, dated 2023)",
  "key": {"[1]": {"system": "dogs with intracoronary microembolization-induced chronic HF", "experiment": "3 months therapy with beta-blocker alone, beta-blocker combined with CCM, or no therapy in HF dogs: LV EDV, ESV, EF", "format": "in vivo, dog", "protocol": "In a set of experiments, dogs with intracoronary microembolization-induced chronic HF (LV EF 30%-40%) were randomized to 3 months therapy with either BB (beta-blockers) alone (extended release metoprolol succinate, 100 mg once daily), extended release metoprolol succinate (100 mg, once daily) combined with CCM therapy, or to no therapy at all (Control). LV end-diastolic volume (EDV), end-systolic volume (ESV) and EF were measured before randomization (PRE) and after 3 months of therapy (POST). To determine “treatment effect”, the change A between PRE and POST therapy for each group was compared among the 3 study groups."}, "[2]": {"target": "protein kinase G", "settings": "advertised; read-out: Inhibits protein kinase G IC50; cited from earlier work"}, "[3]": {"system": "normal cells", "settings": "advertised; cited from earlier work"}, "[4]": {"system": "phospholamban threonin-17", "experiment": "Phosphorylation of PLB at threonine-17 in failing LV tissue homogenate with/without protein kinase inhibitor and CCM signal (Western blot)", "format": "biochemical, dog", "protocol": "(§1) The tissue homogenate was prepared in the following manner. […] The homogenate was then filtered through 4 layers of cheese cloth. The resulting homogenate was stored in ice and its protein concentration was determined by the Lowry method.\n(§2) The CCM signals were delivered to the homogenate as follows. The homogenate was diluted 2 fold in homogenate buffer and subsequently aliquotted 3 ml each in assay tubes. Assay tubes were divided into 2 sets (Set A and Set B), each subset consisting of […]. CCM signals were delivered for 10″, 30″, 1′, 5′, 30′, and 60′ in one of the sets, while the other set served as time control. The reaction was stopped by adding concentrated SDS. Protein assay on all the samples were performed by Lowry method.\n(§3) Additional experiments of tissue homogenate were carried out in the presence and absence of protein kinese inhibitors. The homogenate was the same as above, from dogs with heart failure. […] CAS 62996-74-1."}, "[5]": {"system": "phospholamban serine-16", "experiment": "Phosphorylation of PLB at serine-16 in failing LV tissue homogenate with/without protein kinase inhibitor and CCM signal (Western blot)", "format": "biochemical, dog", "protocol": "as §1, §2, §3"}, "[6]": {"system": "platelet aggregation", "settings": "advertised; cited from earlier work"}, "[7]": {"system": "human malignant glioma cell lines", "settings": "advertised; cited from earlier work"}, "[8]": {"settings": "10 sec, Control + PK Inhibitor (no CCM)"}, "[9]": {"settings": "20 sec, Control + PK Inhibitor (no CCM)"}, "[10]": {"settings": "30 sec, Control + PK Inhibitor (no CCM)"}, "[11]": {"settings": "CCM signals delivered for 60 sec, PK Inhibitor + CCM"}},
  "note": "Several values for one entry are separate records, joined by “and”; a condition that tells them apart may be missing. Identical values can stand only once.",
  "data": [
    {"smiles": "COCCc1ccc(OCC(O)CNC(C)C)cc1", "note": "(centres unmarked) [BB, metoprolol succinate]", "values": [
      {"measurement": "Treatment effect (Δ PRE to POST) LV EF", "setting": "[1]; BB 100 mg once daily combined with CCM therapy", "result": "12±1", "unit": "%"},
      {"measurement": "LV EDV, effect of therapy", "setting": "[1]; BB alone", "result": "prevented the increase"},
      {"measurement": "LV EF, effect of therapy", "setting": "[1]; BB alone", "result": "significantly increased"},
      {"measurement": "LV ESV, effect of therapy", "setting": "[1]; BB alone", "result": "significantly reduced"},
      {"measurement": "Treatment effect (Δ PRE to POST) LV EF", "setting": "[1]; BB alone, 100 mg once daily", "result": "6±1", "unit": "%"},
      {"measurement": "LV EDV, effect of therapy", "setting": "[1]; BB combined with CCM", "result": "prevented the increase"},
      {"measurement": "LV EF, effect of therapy", "setting": "[1]; BB combined with CCM", "result": "significantly increased"},
      {"measurement": "LV ESV, effect of therapy", "setting": "[1]; BB combined with CCM", "result": "significantly reduced"}
    ]},
    {"smiles": "CN[C@@H]1C[C@H]2O[C@@](C)([C@@H]1OC)n1c3ccccc3c3c4c(c5c6ccccc6n2c5c31)C(=O)NC4", "note": "[STAUROSPORIN]", "values": [
      {"measurement": "IC50", "setting": "[2]", "result": 8.5, "unit": "nM"},
      {"measurement": "cell cycle of normal cells (G1 checkpoint)", "setting": "[3]", "result": "Arrests normal cells at the G1 checkpoint"},
      {"measurement": "P-PLB threonin-17, single sample", "setting": "[4]; [8]", "result": "8.9 and 9.5"},
      {"measurement": "P-PLB threonin-17, Av", "setting": "[4]; [9]", "result": 9.0},
      {"measurement": "P-PLB threonin-17, single sample", "setting": "[4]; [10]", "result": 8.2},
      {"measurement": "P-PLB threonin-17, Av", "setting": "[4]; 60 sec, Control + PK Inhibitor (no CCM)", "result": 13.9},
      {"measurement": "P-PLB threonin-17, single sample", "setting": "[4]; CCM signals delivered for 10 sec, PK Inhibitor + CCM", "result": "14.6 and 9.9 and 8.7"},
      {"measurement": "P-PLB threonin-17, single sample", "setting": "[4]; CCM signals delivered for 20 sec, PK Inhibitor + CCM", "result": "8.3 and 15.0"},
      {"measurement": "P-PLB threonin-17, Av", "setting": "[4]; [11]", "result": 15.0},
      {"measurement": "threonin-17 PLB phosphorylation response to CCM in presence of kinese inhibitor", "setting": "[4]; HF dog LV homogenate", "result": "reduced and delayed response"},
      {"measurement": "P-PLB serine-16, single sample", "setting": "[5]; [8]", "result": "8.0 and 9.0"},
      {"measurement": "P-PLB serine-16, single sample", "setting": "[5]; [9]", "result": "12.2 and 14.0"},
      {"measurement": "P-PLB serine-16, Av", "setting": "[5]; [10]", "result": 9.4},
      {"measurement": "P-PLB serine-16, single sample", "setting": "[5]; [10]", "result": "6.8 and 9.7"},
      {"measurement": "P-PLB serine-16, single sample", "setting": "[5]; CCM signals delivered for 30 sec, PK Inhibitor + CCM", "result": "14.3 and 13.0"},
      {"measurement": "P-PLB serine-16, Av", "setting": "[5]; [11]", "result": 19.9},
      {"measurement": "P-PLB serine-16, single sample", "setting": "[5]; [11]", "result": 22.7},
      {"measurement": "serine-16 PLB phosphorylation response to CCM in presence of kinese inhibitor", "setting": "[5]; HF dog LV homogenate", "result": "responded close to usual"},
      {"measurement": "platelet aggregation induced by collagen or ADP", "setting": "[6]", "result": "inhibits"},
      {"measurement": "thrombin-induced platelet aggregation", "setting": "[6]", "result": "no effect"},
      {"measurement": "apoptosis in human malignant glioma cell lines", "setting": "[7]", "result": "Induces apoptosis"}
    ]}
  ]
}
